Key:
hCA I = target: T1, hCA I (Homo sapiens, UniProt P00915); assay: stopped-flow CO2 hydration assay; format: biochemical
T1 construct: gene CA1; recombinant from E. coli; cytosolic isoform
Description: stopped-flow CO2 hydration assay on hCA I

hCA II = target: T2, hCA II (Homo sapiens, UniProt P00918); assay: stopped-flow CO2 hydration assay; format: biochemical
T2 construct: gene CA2; recombinant from E. coli; cytosolic isoform
Description: stopped-flow CO2 hydration assay on hCA II

hCA IX = target: T3, hCA IX (Homo sapiens, UniProt Q16790); assay: stopped-flow CO2 hydration assay; format: biochemical; settings: read-out: KI^* (nM) / hCAIX
T3 construct: gene CA9; recombinant from E. coli; transmembrane isoform with extracellular catalytic domain
Description: stopped-flow CO2 hydration assay on hCA IX

hCA XII = target: T4, hCA XII (Homo sapiens, UniProt O43570); assay: stopped-flow CO2 hydration assay; format: biochemical
T4 construct: gene CA12; recombinant from E. coli; transmembrane isoform with extracellular catalytic domain
Description: stopped-flow CO2 hydration assay on hCA XII

[1] = stopped-flow CO2 hydration assay; format: biochemical, Homo sapiens; settings: read-out: KI^* (nM) / hCA I

T1 sequence (P00915 2-261): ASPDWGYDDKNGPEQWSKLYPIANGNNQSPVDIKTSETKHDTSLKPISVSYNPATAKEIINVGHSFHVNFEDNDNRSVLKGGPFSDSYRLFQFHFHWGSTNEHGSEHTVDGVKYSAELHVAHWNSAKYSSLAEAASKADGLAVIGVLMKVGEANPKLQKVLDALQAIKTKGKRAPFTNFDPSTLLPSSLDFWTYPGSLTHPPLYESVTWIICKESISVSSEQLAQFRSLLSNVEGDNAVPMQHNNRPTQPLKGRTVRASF
T4 sequence (O43570 30-289 limits assumed): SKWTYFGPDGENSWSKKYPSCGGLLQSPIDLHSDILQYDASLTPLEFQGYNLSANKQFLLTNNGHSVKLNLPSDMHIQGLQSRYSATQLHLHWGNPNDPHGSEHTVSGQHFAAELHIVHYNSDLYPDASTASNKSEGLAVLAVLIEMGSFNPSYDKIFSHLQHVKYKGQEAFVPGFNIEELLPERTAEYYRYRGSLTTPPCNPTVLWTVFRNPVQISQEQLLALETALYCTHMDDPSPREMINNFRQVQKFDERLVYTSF

Ki (hCA I)	Ki (hCA II)	Ki (hCA IX)	Ki (hCA XII)	Ki [1]	SMILES
6670 nM	> 10000 nM	47.4 nM	4.5 nM	–	NS(=O)(=O)c1ccc2[nH]c(C(=O)NN=Cc3cccs3)c(-c3ccccc3)c2c1 [compound 4, 3-Phenyl-2-{[2-(thiophene-2-ylmethylidene)hydrazinyl]carbonyl}-1H-indole-5-sulfonamide]
9410 nM	> 10000 nM	48.4 nM	75.1 nM	–	NS(=O)(=O)c1ccc2[nH]c(C(=O)NN=Cc3ccc(Br)s3)c(-c3ccccc3)c2c1 [compound 5, 2-({2-[(5-Bromothiophene-2-yl)methylidene]hydrazinyl}carbonyl)-3-phenyl-1H-indole-5-sulfonamide]
9570 nM	> 10000 nM	44.3 nM	64.4 nM	–	Cn1cccc1C=NNC(=O)c1[nH]c2ccc(S(N)(=O)=O)cc2c1-c1ccccc1 [compound 6, 2-({2-[(1-Methyl-1H-pyrrol-2-yl)methylidene]hydrazinyl}carbonyl)-3-phenyl-1H-indole-5-sulfonamide]
8590 nM	8910 nM	35.8 nM	1.4 nM	–	NS(=O)(=O)c1ccc2[nH]c(C(=O)NN=Cc3cccnc3)c(-c3ccccc3)c2c1 [compound 7, 3-Phenyl-2-{[2-(pyridine-3-ylmethylidene)hydrazinyl]carbonyl}-1H-indole-5-sulfonamide]
3130 nM	3490 nM	15.8 nM	6.6 nM	–	NS(=O)(=O)c1ccc2[nH]c(C(=O)NN=Cc3ccncc3)c(-c3ccccc3)c2c1 [compound 8, 3-Phenyl-2-{[2-(pyridine-4-ylmethylidene)hydrazinyl]carbonyl}-1H-indole-5-sulfonamide]
> 10000 nM	–	207 nM	77.3 nM	> 10000 nM	NS(=O)(=O)c1ccc2[nH]c(C(=O)NN=Cc3c[nH]c4ccccc34)c(-c3ccccc3)c2c1 [compound 9, 3-Phenyl-2-{[2-(1H-indole-3-ylmethylidene)hydrazinyl]carbonyl}-1H-indole-5-sulfonamide]
7480 nM	9370 nM	32.9 nM	23.8 nM	–	C=NNC(=O)c1[nH]c2ccc(S(N)(=O)=O)cc2c1-c1ccccc1 [compound 10, 2-[(2-Methylidenehydrazinyl)carbonyl]-3-phenyl-1H-indole-5-sulfonamide]
4060 nM	5870 nM	12.9 nM	62.6 nM	–	CC=NNC(=O)c1[nH]c2ccc(S(N)(=O)=O)cc2c1-c1ccccc1 [compound 11, 2-[(2-Ethylidenehydrazinyl)carbonyl]-3-phenyl-1H-indole-5-sulfonamide]
9560 nM	8500 nM	47.9 nM	87.9 nM	–	CC(C)=NNC(=O)c1[nH]c2ccc(S(N)(=O)=O)cc2c1-c1ccccc1 [compound 12, 3-Phenyl-2-{[2-(propan-2-ylidene)hydrazinyl]carbonyl}-1H-indole-5-sulfonamide]
9620 nM	8030 nM	42.1 nM	92.4 nM	–	CCC(C)=NNC(=O)c1[nH]c2ccc(S(N)(=O)=O)cc2c1-c1ccccc1 [compound 13, 2-{[2-(Butan-2-ylidene)hydrazinyl]carbonyl}-3-phenyl-1H-indole-5-sulfonamide]
9250 nM	6620 nM	43.7 nM	9.4 nM	–	CCC(CC)=NNC(=O)c1[nH]c2ccc(S(N)(=O)=O)cc2c1-c1ccccc1 [compound 14, 2-{[2-(Pentan-3-ylidene)hydrazinyl]carbonyl}-3-phenyl-1H-indole-5-sulfonamide]
8650 nM	6560 nM	188 nM	27.9 nM	–	CC(CC(C)C)=NNC(=O)c1[nH]c2ccc(S(N)(=O)=O)cc2c1-c1ccccc1 [compound 15, 2-{[2-(4-Methylpentan-2-ylidene)hydrazinyl]carbonyl}-3-phenyl-1H-indole-5-sulfonamide]
> 10000 nM	5960 nM	476 nM	97.2 nM	–	NS(=O)(=O)c1ccc2[nH]c(C(=O)NN=C3CCCC3)c(-c3ccccc3)c2c1 [compound 16, 2-[(2-Cyclopentylidenehydrazinyl)carbonyl]-3-phenyl-1H-indole-5-sulfonamide]
> 10000 nM	5870 nM	191 nM	86.2 nM	–	NS(=O)(=O)c1ccc2[nH]c(C(=O)NN=C3CCCCC3)c(-c3ccccc3)c2c1 [compound 17, 2-[(2-Cyclohexylidenehydrazinyl)carbonyl]-3-phenyl-1H-indole-5-sulfonamide]
> 10000 nM	8940 nM	419 nM	139 nM	–	CC1CCC(=NNC(=O)c2[nH]c3ccc(S(N)(=O)=O)cc3c2-c2ccccc2)CC1 (stereo not drawn) [compound 18, 2-{[2-(4-Methylcyclohexylidene)hydrazinyl]carbonyl}-3-phenyl-1H-indole-5-sulfonamide]
> 10000 nM	1280 nM	475 nM	220 nM	–	CCC1CCC(=NNC(=O)c2[nH]c3ccc(S(N)(=O)=O)cc3c2-c2ccccc2)CC1 (stereo not drawn) [compound 19, 2-{[2-(4-Ethylcyclohexylidene)hydrazinyl]carbonyl}-3-phenyl-1H-indole-5-sulfonamide]
> 10000 nM	796 nM	348 nM	154 nM	–	CCCC1CCC(=NNC(=O)c2[nH]c3ccc(S(N)(=O)=O)cc3c2-c2ccccc2)CC1 (stereo not drawn) [compound 20, 2-{[2-(4-Propylcyclohexylidene)hydrazinyl]carbonyl}-3-phenyl-1H-indole-5-sulfonamide]
> 10000 nM	831 nM	32.3 nM	14.8 nM	–	NS(=O)(=O)c1ccc2[nH]c(C(=O)NN=C3CCC(c4ccccc4)CC3)c(-c3ccccc3)c2c1 (stereo not drawn) [compound 21, 2-{[2-(4-Phenylcyclohexylidene)hydrazinyl]carbonyl}-3-phenyl-1H-indole-5-sulfonamide]
> 10000 nM	3380 nM	17.4 nM	26.6 nM	–	CC(C)(C)C1CCC(=NNC(=O)c2[nH]c3ccc(S(N)(=O)=O)cc3c2-c2ccccc2)CC1 (stereo not drawn) [compound 22, 2-{[2-(4-tert-buthylcyclohexylidene)hydrazinyl]carbonyl}-3-phenyl-1H-indole-5-sulfonamide]
> 10000 nM	309 nM	9.2 nM	62.9 nM	–	CN1CCC(=NNC(=O)c2[nH]c3ccc(S(N)(=O)=O)cc3c2-c2ccccc2)CC1 [compound 23, 2-{[2-(1-Methylpiperidine-4-ylidene)hydrazinyl]carbonyl}-3-phenyl-1H-indole-5-sulfonamide]
7380 nM	372 nM	11.7 nM	9.4 nM	–	NS(=O)(=O)c1ccc2[nH]c(C(=O)NN=C3CCN(Cc4ccccc4)CC3)c(-c3ccccc3)c2c1 [compound 24, 2-{[2-(1-Benzylpiperidine-4-ylidene)hydrazinyl]carbonyl}-3-phenyl-1H-indole-5-sulfonamide]

— PMC6539891, “Indole-Based Hydrazones Containing A Sulfonamide Moiety as Selective Inhibitors of Tumor-Associated Human Carbonic Anhydrase Isoforms IX and XII” (International Journal of Molecular Sciences, 2019)
